Measured values from US11510931B2, “Compositions and methods for treating ophthalmic conditions” (MEDICON PHARMACEUTICALS, INC., priority 2016, dated 2022).

Key:
IL-1β = IL-1β levels in the ILG of rabbits with DED (ELISA); type: in vivo, rabbit
Method: Using this model, we compared the effect of PS to that of cyclosporine and lifitegrast. Rabbits were treated for 6 days with PS as above or cyclosporine 0.05% or lifitegrast 5% eye drops 3×/day. In addition to determining TUBT, osmolarity and STT, we measured the levels of IL-8 and IL-1β in the ILGs of the rabbits harvested at euthanasia. Both of these cytokines are significant mediators of inflammation in DED. As shown in the table below, PS had statistically significant effects on TBUT, tear osmolarity, IL-8 and IL-1β levels. […] Of note, lifitegrast suppressed STT below the levels of the vehicle group and this suppression was statistically significant, but in the opposite direction for a useful therapeutic effect.
Moreover, for all three cytokines PS suppressed their unstimulated levels as well (62%, 84% and 4.7% reduction, respectively). In addition, PS suppressed the levels of IL-8 by 64% and IL-1β (not expressed by the cultured cells) by 61% in the ILG of rabbits treated with PS for 1 week compared to controls treated with vehicle (FIG. 8B). TGF-β was not detectable by the method in ILG homogenates. All these changes were statistically significant (p<0.001-0.04, except for the unstimulated TGF-β).

VEGF = VEGF immunohistochemistry in inferior lacrimal gland of rabbits with DED; type: in vivo, rabbit; settings: PS 3.5% eye drops three times per day, 1 week, vs vehicle
Method: Rabbits with ConA-induced dry eye disease (n=8 eyes/group) were treated with PS 3.5% eye drops three times per day or vehicle for 1 week. […] Immunohistochemistry for VEGF was performed on tissue sections and VEGF positive vessels were counted. PS reduced the number of VEGF positive cells by 73% bringing it to nearly normal values (the level in naïve rabbits)

In the case of CCOP(=O)(OCC)OCCCCOC(=O)CC1=C(C)/C(=C/c2ccc([S+](C)[O-])cc2)c2ccc(F)cc21 (stereo not drawn) [PS, phosphosulindac], the “IL-1β in the ILG” value (IL-1β; Con A DED rabbits, 6 days, eye drops 3×/day, PS nanoparticles, cyclosporine 0.05%, lifitegrast 5%, mean ± SEM) is reported as 8.4 ± 1.2 pg/mg protein, the “suppression of IL-1β levels in the ILG” value (IL-1β; rabbits treated with PS for 1 week vs vehicle) is reported as 61% and the “reduction of the number of VEGF positive cells” value (VEGF) is reported as 73%.
